The term Ki denotes the equilibrium dissociation constant of an inhibitor or competing ligand from its target. What is called melting point is the temperature of the solid-liquid transition.

We go through three molecules from patent US6919342B2, “Triazole compounds suitable for treating disorders that respond to modulation of the dopamine D3 receptor” (Abbott GmbH & Co. KG, priority 2003, dated 2005).

The structures appear in SMILES notation.

Data set [1] concerns the target T1, human dopamine D3 receptors (Homo sapiens, UniProt P35462).
T1 construct: expressed in transfected cells; host or cells: HEK-293
Nature of the data set: Dopamine D3 receptor binding, displacement of [125I]-iodosulpride. The settings on record: for Ki: membranes of HEK-293 cells, 0.1 nM [125I]-iodosulpride, 25° C., 60 minutes; for Selectivity [Ki(D2)/Ki(D3)]: ratio of Ki D2 to Ki D3. As to the method:
(§1) The substance to be tested was either dissolved in methanol/Chremophor® (BASF-AG) or in dimethyl sulfoxide and then diluted with water to the desired concentration.
(§2) Each assay mixture was run in triplicate.
The incubation buffer contained 50 mM tris, 120 mM NaCl, 5 mM KCl, 2 mM CaCl2, 2 mM MgCl2 and 0.1% bovine serum albumin, 10 μM quinolone and 0.1% ascorbic acid (prepared fresh daily). The buffer was adjusted to pH 7.4 with HCl.
(§3) After having been incubated at 25° C. for 60 minutes, the assay mixtures were filtered through a Wathman GF/B glass fiber filter under vacuum using a cell collecting device. The filters were transferred to scintillation viols using a filter transfer system. After 4 ml of Ultima Gold® (Packard) have been added, the samples were shaken for one hour and the radioactivity was then counted in a Beta-Counter (Packard, Tricarb 2000 or 2200CA). The cpm values were converted into dpm using a standard quench series and the program belonging to the instrument.
(§4) The inhibition curves were analyzed by means of iterative nonlinear regression analysis using the Statistical Analysis System (SAS) which is similar to the “LIGAND” program described by Munson and Rodbard.

Data set [2] addresses T2, human dopamine D2L receptors (long isoform) (Homo sapiens, UniProt P14416).
T2 construct: expressed in transfected cells; host or cells: HEK-293
The data set can be described thus: Dopamine D2L receptor binding, displacement of [125I] iodospiperone. The following applies: membranes of HEK-293 cells, 0.01 nM [125I] iodospiperone, 25° C., 60 minutes; read-out: Ki D2. On the procedure: as §1, §2
The incubation buffer contained 50 mM tris, 120 mM NaCl, 5 mM KCl, 2 mM CaCl2, 2 mM MgCl2 and 0.1% bovine serum albumin. The buffer was adjusted to pH 7.4 with HCl.
as §3, §4

T1 sequence (P35462 whole entry): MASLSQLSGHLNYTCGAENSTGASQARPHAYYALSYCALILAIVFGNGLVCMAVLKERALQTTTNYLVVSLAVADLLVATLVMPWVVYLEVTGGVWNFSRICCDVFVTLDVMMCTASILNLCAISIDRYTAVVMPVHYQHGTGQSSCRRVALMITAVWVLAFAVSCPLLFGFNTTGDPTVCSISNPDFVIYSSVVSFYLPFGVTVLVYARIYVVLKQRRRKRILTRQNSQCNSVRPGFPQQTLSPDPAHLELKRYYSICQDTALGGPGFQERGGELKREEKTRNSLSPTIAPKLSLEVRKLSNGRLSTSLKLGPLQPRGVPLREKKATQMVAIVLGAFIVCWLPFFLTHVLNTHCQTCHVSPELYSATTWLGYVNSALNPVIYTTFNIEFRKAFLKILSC
T2 sequence (P14416 whole entry, canonical isoform): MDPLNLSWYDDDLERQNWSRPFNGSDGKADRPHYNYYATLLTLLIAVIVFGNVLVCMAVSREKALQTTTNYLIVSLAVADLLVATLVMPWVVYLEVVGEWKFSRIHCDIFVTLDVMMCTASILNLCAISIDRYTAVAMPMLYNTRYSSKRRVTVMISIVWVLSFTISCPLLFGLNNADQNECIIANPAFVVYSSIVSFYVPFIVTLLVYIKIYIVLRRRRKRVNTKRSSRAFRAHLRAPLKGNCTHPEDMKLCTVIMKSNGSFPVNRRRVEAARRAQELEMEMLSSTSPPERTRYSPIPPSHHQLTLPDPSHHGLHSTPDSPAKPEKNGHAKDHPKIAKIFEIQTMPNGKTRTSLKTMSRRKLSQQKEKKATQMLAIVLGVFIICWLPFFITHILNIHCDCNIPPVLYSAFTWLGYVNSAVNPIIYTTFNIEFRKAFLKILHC

As for `Cn1c(N)nnc1SCCCN1CCN(c2cc(C(C)(C)C)nc(C(C)(C)C)n2)CC1` [A], in data set [1], the Ki is 0.7 nM and the “Selectivity [Ki(D2)/Ki(D3)]” value is listed as 19. In addition, the Ki in data set [2] was 12 nM.

As for `Cn1c(N)nnc1SCCCN1CCN(c2cc(C(F)(F)F)nc(C(C)(C)C)n2)CC1` [B], the values for the Ki in data set [1] and in data set [2] were 3.9 nM and 119 nM, respectively. The “Selectivity [Ki(D2)/Ki(D3)]” value in data set [1] is 31.

`Cl.Cn1cnnc1SCCCN1CCN(c2cc(C(F)(F)F)nc(C(C)(C)C)n2)CC1` [Example 6, 2-tert-Butyl-4-{4-[3-(4-methyl-4H-[1,2,4]triazol-3-ylsulfanyl)-propyl]-piperazin-1-yl}-6-trifluoromethyl-pyrimidine hydrochloride] gave a melting point of 92 to 95 °C.
